Measured values: PubChem BioAssay AID1963841 (Molecular Pharmacology Branch, DTP, NCI, 2024)

Test system: 439559-082-T-J2-PDC spheroid viability
Test: Anticancer human tumor 439559-082-T-J2-PDC patient-derived colon adenocarcinoma cell line growth inhibition [POLQ]
Settings: spheroids with HUVEC and MSC; for IC50: curve of first compound; for viability, T/C: stronger effect = lower value
In short: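 Patient-derived tumour cells were co-cultured with HUVEC and mesenchymal stem cells as multicellular spheroids at 37 °C. They were treated with POLQ inhibitors (novobiocin, ART-558, RP6685) alone or combined with other agents. Top concentrations were at or near clinical Cmax (otherwise 10 microM; SN-38 at 1 microM), decreasing in half-log steps.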
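Note: spheroids exposed to compounds for seven days before readout.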
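Throughout, for viability, T/C: 100% = DMSO vehicle control viability.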

COc1cc(C2c3cc4c(cc3C(OC3OC5COC(C)OC5C(O)C3O)C3COC(=O)C23)OCO4)cc(OC)c1O (configuration not stated) + COC1C(OC(N)=O)C(O)C(Oc2ccc3c(O)c(NC(=O)c4ccc(O)c(CC=C(C)C)c4)c(=O)oc3c2C)OC1(C)C
IC50 (second compound 0.0316 µM): > 10 µM | IC50 (second compound 0.1 µM): > 10 µM | IC50 (second compound 0.316 µM): > 10 µM | IC50 (second compound 1 µM): > 10 µM | IC50 (second compound 3.16 µM): > 10 µM | IC50 (second compound 10 µM): > 10 µM | viability, T/C (second compound 0.0316 µM, first compound 0.0316 µM): 94.7% | viability, T/C (second compound 0.0316 µM, first compound 0.1 µM): 97.2% | viability, T/C (second compound 0.0316 µM, first compound 0.316 µM): 102% | viability, T/C (second compound 0.0316 µM, first compound 1 µM): 98% | viability, T/C (second compound 0.0316 µM, first compound 3.16 µM): 90% | viability, T/C (second compound 0.0316 µM, first compound 10 µM): 76.8% | viability, T/C (second compound 0.1 µM, first compound 0.0316 µM): 108% | viability, T/C (second compound 0.1 µM, first compound 0.1 µM): 108% | viability, T/C (second compound 0.1 µM, first compound 0.316 µM): 102% | viability, T/C (second compound 0.1 µM, first compound 1 µM): 90.7% | viability, T/C (second compound 0.1 µM, first compound 3.16 µM): 92.7% | viability, T/C (second compound 0.1 µM, first compound 10 µM): 72.9% | viability, T/C (second compound 0.316 µM, first compound 0.0316 µM): 102% | viability, T/C (second compound 0.316 µM, first compound 0.1 µM): 105% | viability, T/C (second compound 0.316 µM, first compound 0.316 µM): 91% | viability, T/C (second compound 0.316 µM, first compound 1 µM): 98.6% | viability, T/C (second compound 0.316 µM, first compound 3.16 µM): 89.5% | viability, T/C (second compound 0.316 µM, first compound 10 µM): 69.8% | viability, T/C (second compound 1 µM, first compound 0.0316 µM): 102% | viability, T/C (second compound 1 µM, first compound 0.1 µM): 94.7% | viability, T/C (second compound 1 µM, first compound 0.316 µM): 98.6% | viability, T/C (second compound 1 µM, first compound 1 µM): 100% | viability, T/C (second compound 1 µM, first compound 3.16 µM): 87.1% | viability, T/C (second compound 1 µM, first compound 10 µM): 71.5% | viability, T/C (second compound 3.16 µM, first compound 0.0316 µM): 101% | viability, T/C (second compound 3.16 µM, first compound 0.1 µM): 101% | viability, T/C (second compound 3.16 µM, first compound 0.316 µM): 99.1% | viability, T/C (second compound 3.16 µM, first compound 1 µM): 94.5% | viability, T/C (second compound 3.16 µM, first compound 3.16 µM): 91.4% | viability, T/C (second compound 3.16 µM, first compound 10 µM): 73.1% | viability, T/C (second compound 10 µM, first compound 0.0316 µM): 100% | viability, T/C (second compound 10 µM, first compound 0.1 µM): 103% | viability, T/C (second compound 10 µM, first compound 0.316 µM): 100% | viability, T/C (second compound 10 µM, first compound 1 µM): 92.4% | viability, T/C (second compound 10 µM, first compound 3.16 µM): 86.8% | viability, T/C (second compound 10 µM, first compound 10 µM): 71.7%
